According to patent US11760984B2, “CRISPR protein inhibitors” (THE BROAD INSTITUTE, INC., priority 2017, dated 2023):
In brackets after ≈: the same amount, converted by molar mass.

Assays:
[1] = Solubility in PBS determined by mass spectroscopy; format: physicochemical; details: aqueous buffer, 24 h incubation at room temperature, read-out: solubility: no detectable aggregation up to
Description: FIG. 15—The solubility of BRD7087 compound in PBS as determined by mass spectroscopy after 24 h of incubation at room temperature. Compounds Antipyrine and Clotrimazole were used as positive controls.
FIG. 59. The solubility of BRD7087 compound in PBS as determined by Mass spectroscopy after 24 h of incubation at room temperature. Compounds Antipyrine and Clotrimazole have been used as the positive controls.

[2] = system: S. aureus RN4220 strain; experiment: Toxicity study of compounds in bacterial culture (no phage); format: cell-based; details: 20 μM; 16 h; inhibitor alone
Description: FIG. 79. Toxicity study of compounds in bacterial culture. Bacterial growth study in the presence of the compound. Bacterial cell S. aureus RN4220 strain was allowed to grow either in the presence of DMSO or 20 μM of compound BRD7087 or BRD5779 over 16 h. The experiment was performed in three technical replicates.
Bacterial study. Plasmid pRH248 harboring SpCas9, tracrRNA and a single-spacer array ([…]) (SEQ ID 13) No. targeting phage (DNM474 was constructed via BsaI cloning onto pDB114 as described in Heler et al 6. Plate reader growth curves of bacteria infected with phage were conducted as described previously with minor modifications 7. Overnight cultures were diluted 1:100 into 2 ml of fresh BHI supplemented with appropriate antibiotics and 5 mM CaCl2) and grown to an OD600 of ˜0.2. Immune cells carrying pRH248 were diluted with cells lacking CRISPR-Cas in a 1:10,000 ratio. […] To produce plate reader growth curves, 200 μL of infected cultures, normalized for OD600, were transferred to a 96-well plate in triplicate. […]
Bacterial study. […] Plate reader growth curves of bacteria infected with phage were conducted as described previously with minor modifications^7. […] To produce plate reader growth curves, 200 μL of infected cultures, normalized for OD600, were transferred to a 96-well plate in triplicate. […]

[3] = system: dCas9; experiment: dCas9-based transcriptional activation of HBG1 gene in HEK293FT cells (RT-qPCR); format: cell-based; details: for inhibition of HBG1 transcriptional activation: HEK293FT cells, 48 hours
Description: Transcription activation experiments and quantitative RT-PCR analyses. For transcription activation experiments 250,000 cells/well were plated in a 12 well plate. The cells were transiently transfected with a 1:1:1 mass ratio of the dCas9 plasmid, MS2-P65-HSF1 effector plasmid and the sgRNA plasmid targeting the HBG1 gene or an RFP control plasmid. A total of 1.6 μg plasmid DNA was transfected using Lipofectamine 2000 (Life Technologies) according to manufacturer's protocol. Immediately after transfection, the cells were treated with an appropriate dose of the small molecule inhibitors for 48 hours following which the cells were harvested and RNA was extracted using the EZNA Total RNA kit I (Omega) as per manufacturer's instructions. 1 μg total cellular RNA was used to perform reverse transcription using the High-Capacity cDNA Reverse Transcription Kit (Applied Biosystems) or the qScript cDNA Synthesis Kit (QuantaBio). qPCR reactions were performed to quantify RNA expression using the TaqMan probes (Life Technologies, HBG1/HBG2: Hs00361131_g1 and ACTB: Hs01060665_g1) and TaqMan Fast Advanced Master Mix (Life Technologies) in 5 μL multiplexed reactions and 384-well format using the LightCycler 480 Instrument II (Roche). For each sample, six technical replicates were performed. Data were analyzed using the LightCycler 480 software (Roche) by the ΔΔCt method: Ct values for the gene of interest (HBG1) were normalized to Ct values for the housekeeping gene (ACTB) and fold-changes in the expression level of the gene of interest were normalized to RFP-transfected control. The data are reported as mean±S.E.M. for technical replicates.
For transcription activation experiments 250,000 cells/well were plated in a 12 well plate. […] Data were analyzed using the LightCycler 480 software (Roche) by the ΔΔCt method: Ct values for the gene of interest (HBG1) were normalized to Ct values for the housekeeping gene (ACTB) and fold-changes in the expression level of the gene of interest were normalized to RFP-transfected control. […]

COc1ccc(-c2ccc3c(c2)[C@H]2[C@H](CCN2Cc2ccncc2)[C@@H](CO)N3)cc1 [BRD5779, ((3aR,4S,9bR)-8-(4-Methoxyphenyl)-1-(pyridin-4-ylmethyl)-2,3,3a,4,5,9b-hexahydro-1H-pyrrolo[3,2-c]quinolin-4-yl)methanol]
solubility at 24 h [1]: ~75 µM (≈ 30.1 µg/mL) | toxicity to bacteria in the absence of phage [2]: non-toxic in the absence of phage | inhibition of HBG1 transcriptional activation [3]: dose-dependent inhibition

OC[C@H]1Nc2ccc(-c3cccc(F)c3)cc2[C@H]2[C@@H]1CCN2Cc1ccncc1 [BRD7087, ((3aR,4S,9bR)-8-(3-Fluorophenyl)-1-(pyridin-4-ylmethyl)-2,3,3a,4,5,9b-hexahydro-1H-pyrrolo[3,2-c]quinolin-4-yl)methanol]
solubility at 24 h [1]: ~75 µM (≈ 29.2 µg/mL) | toxicity to bacteria in the absence of phage [2]: non-toxic in the absence of phage | inhibition of transcriptional activation ([3]; 10 μM, HBG1 gene): > 60% | inhibition of HBG1 transcriptional activation [3]: dose-dependent inhibition
